Results from ChEMBL document CHEMBL1149440, “Indol-1-yl acetic acids as peroxisome proliferator-activated receptor agonists: design, synthesis, structural biology, and molecular docking studies” (J Med Chem, 2006).

What was measured:
[1] = molecular target: T1, Peroxisome proliferator-activated receptor alpha (Homo sapiens, UniProt Q07869)
T1 sequence (Q07869 whole entry): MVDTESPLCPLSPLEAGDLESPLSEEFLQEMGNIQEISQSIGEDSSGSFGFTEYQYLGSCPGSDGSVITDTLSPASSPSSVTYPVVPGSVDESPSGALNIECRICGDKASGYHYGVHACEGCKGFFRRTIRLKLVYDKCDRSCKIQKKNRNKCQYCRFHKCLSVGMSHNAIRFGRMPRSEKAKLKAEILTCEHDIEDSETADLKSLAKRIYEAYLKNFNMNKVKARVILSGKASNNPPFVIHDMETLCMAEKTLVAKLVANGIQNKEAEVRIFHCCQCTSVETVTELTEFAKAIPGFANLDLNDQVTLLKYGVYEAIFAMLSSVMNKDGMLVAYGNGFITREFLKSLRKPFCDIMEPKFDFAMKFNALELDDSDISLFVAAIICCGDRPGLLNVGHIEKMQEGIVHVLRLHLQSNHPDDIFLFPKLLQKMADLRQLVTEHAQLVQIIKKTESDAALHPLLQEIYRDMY

[2] = molecular target: T2, Peroxisome proliferator-activated receptor delta (Homo sapiens, UniProt Q03181)
T2 sequence (Q03181 whole entry): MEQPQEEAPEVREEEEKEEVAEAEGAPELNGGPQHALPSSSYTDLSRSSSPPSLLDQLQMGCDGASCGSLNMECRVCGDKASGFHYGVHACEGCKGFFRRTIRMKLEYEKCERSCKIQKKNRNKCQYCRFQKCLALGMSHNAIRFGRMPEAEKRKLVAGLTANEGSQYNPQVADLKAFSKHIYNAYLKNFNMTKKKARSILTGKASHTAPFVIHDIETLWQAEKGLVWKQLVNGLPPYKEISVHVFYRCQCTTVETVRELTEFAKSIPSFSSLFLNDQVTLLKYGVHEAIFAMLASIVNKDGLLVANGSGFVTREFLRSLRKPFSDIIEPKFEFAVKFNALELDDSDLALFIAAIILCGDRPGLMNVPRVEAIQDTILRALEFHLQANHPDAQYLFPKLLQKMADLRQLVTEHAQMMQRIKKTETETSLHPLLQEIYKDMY

[3] = molecular target: T1, Peroxisome proliferator-activated receptor alpha; assay type: functional, cell-based, Huh-7
[4] = molecular target: T2, Peroxisome proliferator-activated receptor delta; assay type: functional, cell-based, Huh-7

Row | SMILES | IC50 [1] | IC50 [2] | EC50 [3] | EC50 [4]
1 | O=C(O)Cn1ccc2c(OCCCOc3ccc(C(=O)c4ccc(F)cc4)cc3)cccc21 | 1020 nM | > 10000 nM | > 10000 nM | > 10000 nM
2 | O=C(O)Cn1ccc2c(OCCCOc3ccc4cc(C(=O)c5ccccc5)ccc4c3)cccc21 | 1080 nM | > 10000 nM | > 10000 nM | > 10000 nM
3 | O=C(O)Cn1ccc2cc(OCCCOc3ccc(C(=O)c4ccc(F)cc4)cc3)ccc21 | > 10000 nM | > 10000 nM | > 10000 nM | > 10000 nM
4 | CCCc1c(OCCCOc2ccc3ccn(CC(=O)O)c3c2)ccc2cc(C(=O)c3ccccc3)ccc12 | 4490 nM | 2400 nM | 2480 nM | 4900 nM
5 | CCCc1cc(C(=O)c2ccc(F)cc2)ccc1OCCCOc1ccc2ccn(CC(=O)O)c2c1 | 1050 nM | 7620 nM | > 10000 nM | 5290 nM
6 | O=C(O)Cn1ccc2ccc(OCCCOc3ccc4cc(C(=O)c5ccccc5)ccc4c3)cc21 | 4490 nM | 2570 nM | > 10000 nM | > 10000 nM

The next compounds have a lower IC50 [1] than those just listed; values first:

Row | IC50 [1] | IC50 [2] | EC50 [3] | EC50 [4] | SMILES
7 | 578 nM | 5380 nM | 19 nM | > 10000 nM | CCCc1c(OCCCOc2cccc3c2ccn3CC(=O)O)ccc2cc(C(=O)c3ccccc3)ccc12
8 | 496 nM | – | – | – | CCCc1c(OCCCOc2ccc3c(ccn3CC(=O)O)c2)ccc2c(C(F)(F)F)noc12
9 | 484 nM | 4430 nM | 270 nM | 5600 nM | O=C(O)Cn1ccc2cc(OCCCOc3ccc4cc(C(=O)c5ccccc5)ccc4c3)ccc21
10 | 470 nM | – | 50 nM | – | CCCc1cc(C(=O)c2ccc(F)cc2)ccc1OCCCOc1ccc2c(ccn2CC(=O)O)c1
11 | 414 nM | 3260 nM | 773 nM | 4000 nM | CCCc1cc(C(=O)c2ccc(F)cc2)ccc1OCCCOc1cccc2c1ccn2CC(=O)O
12 | 116 nM | 3150 nM | 765 nM | 4350 nM | O=C(O)Cn1ccc2ccc(OCCCOc3ccc(C(=O)c4ccc(F)cc4)cc3)cc21
13 | 113 nM | – | 8 nM | – | CCCc1c(OCCCOc2ccc3c(ccn3CC(=O)O)c2)ccc2cc(C(=O)c3ccccc3)ccc12
